The record followed here is US9273057B2 (Bristol-Myers Squibb Company, priority 2012, dated 2016).

The target in this assay is CK2A1 (CK2α/β) (Homo sapiens, UniProt P68400). Put plainly: CK2 kinase assay, CK2A1 (CK2α/β). Format: biochemical. The following applies: Table A; read-out: CK2A1 (CK2α/β) (IC50).
Sequence of CK2A1 (CK2α/β) (P68400 whole entry, species assumed): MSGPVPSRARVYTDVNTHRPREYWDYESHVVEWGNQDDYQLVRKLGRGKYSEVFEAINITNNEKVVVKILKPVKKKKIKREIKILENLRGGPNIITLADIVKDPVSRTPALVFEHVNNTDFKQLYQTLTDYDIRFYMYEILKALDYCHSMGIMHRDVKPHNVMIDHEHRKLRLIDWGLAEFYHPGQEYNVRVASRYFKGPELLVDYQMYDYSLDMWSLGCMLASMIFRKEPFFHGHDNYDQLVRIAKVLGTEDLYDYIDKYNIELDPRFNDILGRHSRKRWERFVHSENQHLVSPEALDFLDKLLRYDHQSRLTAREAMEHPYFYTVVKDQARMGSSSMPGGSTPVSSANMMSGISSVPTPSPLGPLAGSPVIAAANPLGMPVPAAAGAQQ
Sequence of CK2A1 (CK2α/β) (P67870 whole entry partner, species assumed): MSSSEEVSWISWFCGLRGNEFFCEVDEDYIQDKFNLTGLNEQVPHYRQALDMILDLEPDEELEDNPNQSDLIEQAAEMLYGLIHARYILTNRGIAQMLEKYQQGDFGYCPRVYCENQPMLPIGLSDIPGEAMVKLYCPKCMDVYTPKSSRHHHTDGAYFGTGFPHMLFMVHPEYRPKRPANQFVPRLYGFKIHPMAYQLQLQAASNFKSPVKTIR
Turning to `N#Cc1cc(Nc2nc(NC3CC3)c3ncc(C#N)n3n2)c(F)c(N2CCN(CC(O)CF)CC2)c1` (stereo not shown) [Example 549, 2-((5-cyano-2-fluoro-3-(4-(3-fluoro-2-hydroxypropyl)piperazin-1-yl)phenyl)amino)-4-(cyclopropylamino)imidazo[2,1-f][1,2,4]triazine-7-carbonitrile], the IC50 was found to be 1.25 nM.
As for `N#Cc1cc(Nc2nc(NC3CC3)c3ncc(C#N)n3n2)c(F)c(N2CCN(C3CNC3)CC2)c1` [Example 550, 2-((3-(4-(azetidin-3-yl)piperazin-1-yl)-5-cyano-2-fluorophenyl)amino)-4-(cyclopropylamino)imidazo[2,1-f][1,2,4]triazine-7-carbonitrile], the IC50 amounted to 0.83 nM.
Consider `CC(=O)N1CC(N2CCN(c3cc(C#N)cc(Nc4nc(NC5CC5)c5ncc(C#N)n5n4)c3F)CC2)C1` [Example 551, 2-((3-(4-(1-acetylazetidin-3-yl)piperazin-1-yl)-5-cyano-2-fluorophenyl)amino)-4-(cyclopropylamino)imidazo[2,1-f][1,2,4]triazine-7-carbonitrile], for which the IC50 came out at 1.23 nM.
To `N#Cc1cc(Nc2nc(NC3CC3)c3ncc(C#N)n3n2)c(F)c(N2CCN(C3CCOC3)CC2)c1` (stereo not shown) [Example 554, 2-((5-cyano-2-fluoro-3-(4-(tetrahydrofuran-3-yl)piperazin-1-yl)phenyl)amino)-4-(cyclopropylamino)imidazo[2,1-f][1,2,4]triazine-7-carbonitrile] belongs 5.03 nM; to `N#Cc1cc(Nc2nc(NC3CC3)c3ncc(C#N)n3n2)c(F)c(N2CCN(C3(C#N)COC3)CC2)c1` [Example 555, 2-((5-cyano-3-(4-(3-cyanooxetan-3-yl)piperazin-1-yl)-2-fluorophenyl)amino)-4-(cyclopropylamino)imidazo[2,1-f][1,2,4]triazine-7-carbonitrile], 1.23 nM.
To `CCNc1nc(Nc2cc(C#N)cc(N3CCN(C4COC4)CC3)c2F)nn2c(C#N)cnc12` [Example 556, 2-((5-cyano-2-fluoro-3-(4-(oxetan-3-yl)piperazin-1-yl)phenyl)amino)-4-(ethylamino)imidazo[2,1-f][1,2,4]triazine-7-carbonitrile] belongs 3.68 nM; to `N#Cc1cnc2c(NC3CC3)nc(Nc3cc(OC(F)F)cc(N4CCN(C5COC5)CC4)c3Cl)nn12` [Example 557, 2-((2-chloro-5-(difluoromethoxy)-3-(4-(oxetan-3-yl)piperazin-1-yl)phenyl)amino)-4-(cyclopropylamino)imidazo[2,1-f][1,2,4]triazine-7-carbonitrile], 2.05 nM.
To `N#Cc1cnc2c(NC3CC3)nc(Nc3cc(OC(F)F)cc(N4CCNCC4)c3Cl)nn12` [Example 558, 2-((2-chloro-5-(difluoromethoxy)-3-(piperazin-1-yl)phenyl)amino)-4-(cyclopropylamino)imidazo[2,1-f][1,2,4]triazine-7-carbonitrile] belongs 5.37 nM; to `CC(=O)N1CC(N2CCN(c3cc(OC(F)F)cc(Nc4nc(NC5CC5)c5ncc(C#N)n5n4)c3Cl)CC2)C1` [Example 559, 2-((3-(4-(1-acetylazetidin-3-yl)piperazin-1-yl)-2-chloro-5-(difluoromethoxy)phenyl)amino)-4-(cyclopropylamino)imidazo[2,1-f][1,2,4]triazine-7-carbonitrile], 2.37 nM; to `N#Cc1cnc2c(NC3CC3)nc(Nc3cc(OC(F)F)cc(N4CCN(C5CNC5)CC4)c3Cl)nn12` [Example 560, 2-((3-(4-(azetidin-3-yl)piperazin-1-yl)-2-chloro-5-(difluoromethoxy)phenyl)amino)-4-(cyclopropylamino)imidazo[2,1-f][1,2,4]triazine-7-carbonitrile], 1.15 nM.
For the compound `CC1(N2CCN(c3cc(OC(F)F)cc(Nc4nc(NC5CC5)c5ncc(C#N)n5n4)c3Cl)CC2)COC1` [Example 561, 2-((2-chloro-5-(difluoromethoxy)-3-(4-(3-methyloxetan-3-yl)piperazin-1-yl)phenyl)amino)-4-(cyclopropylamino)imidazo[2,1-f][1,2,4]triazine-7-carbonitrile], the IC50 was 2.08 nM.
To `COC(=O)N1CC(N2CCN(c3cc(OC(F)F)cc(Nc4nc(NC5CC5)c5ncc(C#N)n5n4)c3Cl)CC2)C1` [Example 562, methyl 3-(4-(2-chloro-3-((7-cyano-4-(cyclopropylamino)imidazo[2,1-f][1,2,4]triazin-2-yl)amino)-5-(difluoromethoxy)phenyl)piperazin-1-yl)azetidine-1-carboxylate] belongs 3.33 nM; to `CN(C)C(=O)C1CN(c2cc(C#N)cc(Nc3nc(NC4CC4)c4ncc(C#N)n4n3)c2Cl)CCN1` (stereo not shown) [Example 563, 4-(2-chloro-5-cyano-3-((7-cyano-4-(cyclopropylamino)imidazo[2,1-f][1,2,4]triazin-2-yl)amino)phenyl)-N,N-dimethylpiperazine-2-carboxamide], 0.79 nM; to `CN(C)C(=O)C1CN(c2cc(C#N)cc(Nc3nc(NC4CC4)c4ncc(C#N)n4n3)c2Cl)CCN1C1COC1` (stereo not shown) [Example 564, 4-(2-chloro-5-cyano-3-((7-cyano-4-(cyclopropylamino)imidazo[2,1-f][1,2,4]triazin-2-yl)amino)phenyl)-N,N-dimethyl-1-(oxetan-3-yl)piperazine-2-carboxamide], 4.86 nM.
To `CN(C)C(=O)C1CN(c2cc(C#N)cc(Nc3nc(NC4CC4)c4ncc(C#N)n4n3)c2Cl)CCN1CC(F)F` (stereo not shown) [Example 565, 4-(2-chloro-5-cyano-3-((7-cyano-4-(cyclopropylamino)imidazo[2,1-f][1,2,4]triazin-2-yl)amino)phenyl)-1-(2,2-difluoroethyl)-N,N-dimethylpiperazine-2-carboxamide] belongs 180 nM; to `N#Cc1cc(Nc2nc(NC3CC3)c3ncc(C#N)n3n2)c(Cl)cc1CCCO` [Example 566, 2-((2-chloro-5-cyano-4-(3-hydroxypropyl)phenyl)amino)-4-(cyclopropylamino)imidazo[2,1-f][1,2,4]triazine-7-carbonitrile], 0.1 nM; to `N#Cc1cc(Nc2nc(NC3CC3)c3ncc(C#N)n3n2)c(Cl)cc1CCCN1CCOCC1` [Example 567, 2-((2-chloro-5-cyano-4-(3-morpholinopropyl)phenyl)amino)-4-(cyclopropylamino)imidazo[2,1-f][1,2,4]triazine-7-carbonitrile], 4.06 nM.
In the case of `CC(C)(O)C1CCN(CCCc2cc(Cl)c(Nc3nc(NC4CC4)c4ncc(C#N)n4n3)cc2C#N)CC1` [Example 568, 2-((2-chloro-5-cyano-4-(3-(4-(2-hydroxypropan-2-yl)piperidin-1-yl)propyl)phenyl)amino)-4-(cyclopropylamino)imidazo[2,1-f][1,2,4]triazine-7-carbonitrile], the IC50 stood at 1.97 nM.
To `N#Cc1cc(Nc2nc(NC3CC3)c3ncc(C#N)n3n2)c(Cl)cc1CCCN1CC(O)C1` [Example 569, 2-((2-chloro-5-cyano-4-(3-(3-hydroxyazetidin-1-yl)propyl)phenyl)amino)-4-(cyclopropylamino)imidazo[2,1-f][1,2,4]triazine-7-carbonitrile] belongs 0.7 nM.
In the case of `COC1CN(CCCc2cc(Cl)c(Nc3nc(NC4CC4)c4ncc(C#N)n4n3)cc2C#N)C1` [Example 570, 2-((2-chloro-5-cyano-4-(3-(3-methoxyazetidin-1-yl)propyl)phenyl)amino)-4-(cyclopropylamino)imidazo[2,1-f][1,2,4]triazine-7-carbonitrile], the IC50 is 1.91 nM.
To `COC1CN(CCCCc2cc(Cl)c(Nc3nc(NC4CC4)c4ncc(C#N)n4n3)cc2C#N)C1` [Example 571, 2-((2-chloro-5-cyano-4-(4-(3-methoxyazetidin-1-yl)butyl)phenyl)amino)-4-(cyclopropylamino)imidazo[2,1-f][1,2,4]triazine-7-carbonitrile] belongs 3.95 nM; to `N#Cc1cc(Nc2nc(NC3CC3)c3ncc(C#N)n3n2)c(Cl)cc1CCCCN1CCOCC1` [Example 572, 2-((2-chloro-5-cyano-4-(4-morpholinobutyl)phenyl)amino)-4-(cyclopropylamino)imidazo[2,1-f][1,2,4]triazine-7-carbonitrile], 0.66 nM.
To `CC(CN1CC(O)C1)c1cc(C#N)cc(Nc2nc(NC3CC3)c3ncc(C#N)n3n2)c1Cl` (stereo not shown) [Example 573, 2-((2-chloro-5-cyano-3-(1-(3-hydroxyazetidin-1-yl)propan-2-yl)phenyl)amino)-4-(cyclopropylamino)imidazo[2,1-f][1,2,4]triazine-7-carbonitrile] belongs 1.3 nM.
To `CC(CCO)c1cc(C#N)cc(Nc2nc(NC3CC3)c3ncc(C#N)n3n2)c1Cl` (stereo not shown) [Example 574, 2-((2-chloro-5-cyano-3-(4-hydroxybutan-2-yl)phenyl)amino)-4-(cyclopropylamino)imidazo[2,1-f][1,2,4]triazine-7-carbonitrile] belongs 0.44 nM.
For the compound `CC(CCN1CC(O)C1)c1cc(C#N)cc(Nc2nc(NC3CC3)c3ncc(C#N)n3n2)c1Cl` (stereo not shown) [Example 575, 2-((2-chloro-5-cyano-3-(4-(3-hydroxyazetidin-1-yl)butan-2-yl)phenyl)amino)-4-(cyclopropylamino)imidazo[2,1-f][1,2,4]triazine-7-carbonitrile], the IC50 came out at 0.98 nM.
To `CC(CCNCCC(F)(F)F)c1cc(C#N)cc(Nc2nc(NC3CC3)c3ncc(C#N)n3n2)c1Cl` (stereo not shown) [Example 576, 2-((2-chloro-5-cyano-3-(4-((3,3,3-trifluoropropyl)amino)butan-2-yl)phenyl)amino)-4-(cyclopropylamino)imidazo[2,1-f][1,2,4]triazine-7-carbonitrile] belongs 1.59 nM.
To `CN1CCN(CCCc2cc(C#N)cc(Nc3nc(NC4CC4)c4ncc(C#N)n4n3)c2Cl)CC1` [Example 577, 2-((2-chloro-5-cyano-3-(3-(4-methylpiperazin-1-yl)propyl)phenyl)amino)-4-(cyclopropylamino)imidazo[2,1-f][1,2,4]triazine-7-carbonitrile] belongs 0.72 nM.
Consider `CCNc1nc(Nc2cc(C#N)cc(CCCN3CCN(C)CC3)c2Cl)nn2c(C#N)cnc12` [Example 578, 2-((2-chloro-5-cyano-3-(3-(4-methylpiperazin-1-yl)propyl)phenyl)amino)-4-(ethylamino)imidazo[2,1-f][1,2,4]triazine-7-carbonitrile], for which the IC50 came to 0.99 nM.
